The assay has as its target T1, human somatostatin receptor subtype 2 (Homo sapiens, UniProt P30874).
T1 construct: expressed in transfected cells; host or cells: CHO (Chinese hamster ovary) cells, cultured under G-418 selection
The assay can be described thus: cAMP assay (inhibition of cAMP activities via sst2 receptor). The note with it: CHO cells expressing the human somatostatin receptor subtype 2, forskolin. The assay is classed as cell-based. An excerpt:
General overview: All five SSTR subtypes are Gi coupled G-protein coupled receptors (GPCRs) that lead to decreases in intracellular cyclic AMP (cAMP) when activated by an agonist. Therefore, measurement of intracellular cAMP levels can be used to assess whether compounds of the invention are agonists of SSTR subtypes (John Kelly, Troy Stevens, W. Joseph Thompson, and Roland Seifert, Current Protocols in Pharmacology, 2005,2.2.1-2.2). One example of an intracellular cAMP assay is described below.
One day prior to the assay, 40,000 Chinese hamster ovary (CHO) cells expressing the human somatostatin receptor subtype 2 are plated in each well of a 96-well tissue culture plate in DM-MEM growth media (Gibco) with the following additives: 10% fetal bovine serum (Gibco), 100 U/mL penicillin (Gibco), 100 ug/mL streptomycin (Gibco), 10 mM HEPES (Gibco), 1.2 mM sodium hydroxide, 0.5 mg/mL G-418 (Gibco)). The cells are cultured overnight at 37° C., 5% CO2 and 95% humidity. On the day of the assay, the media is aspirated and the cells are washed with 1X Dulbecco's phosphate buffered saline (Gibco). Next, 5 μL of assay buffer (1× Earle's Balanced Salt Solution (Gibco), 5 mM MgCl2, 10 mM HEPES, 0.1% bovine serum albumin, 0.2 mM 3-Isobutyl-1-methylxanthine (IBMX, Biomol Research Labs)) and forskolin is added. Various dilutions of the compounds of the invention are prepared in assay buffer and 5 μL of the dilutions are added to the cultured cells and incubated for 15 minutes at 37° C. (the final concentration of the compounds of the invention are typically 0-10,000 nM). 10 μL of lysis buffer (HRTF cAMP kit, Cisbio) containing cAMP detection and visualization antibodies are added and the assay is allowed incubate for 1-24 hours at room temperature. The intracellular cAMP concentrations are then measured using a commercially available detection kit (for example, the cAMP HTRF kit, Cisbio). The measured intracellular cAMP concentrations are plotted vs. the concentration of the compounds of the invention and the EC50 of the compounds are calculated using standard methods.
On the technique in general: Changes in cAMP serve as a functional read-out for many G protein-coupled receptors.
T1 sequence (P30874 whole entry): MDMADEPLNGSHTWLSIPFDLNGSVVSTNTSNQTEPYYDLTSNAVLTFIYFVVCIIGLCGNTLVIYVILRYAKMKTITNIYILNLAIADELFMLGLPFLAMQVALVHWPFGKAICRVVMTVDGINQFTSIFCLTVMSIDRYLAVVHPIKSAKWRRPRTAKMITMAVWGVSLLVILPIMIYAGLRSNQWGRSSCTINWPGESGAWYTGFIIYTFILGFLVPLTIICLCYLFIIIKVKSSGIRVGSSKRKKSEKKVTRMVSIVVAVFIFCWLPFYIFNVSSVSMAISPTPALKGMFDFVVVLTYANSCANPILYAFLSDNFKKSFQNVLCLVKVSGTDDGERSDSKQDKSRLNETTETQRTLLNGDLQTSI
Broadly, the EC50 is the concentration giving half of the maximal effect. Low values mean an effect from little substance, high ones a need for much substance. With `Cc1cc(Cl)cc(-c2cnc3ccc(-c4cccc(O)c4)cc3c2C(=O)N(C)C[C@H]2CCCN2)c1` (single isomer, unassigned) [Compound 1-5], the response was half-maximal at 39 nM (EC50).
Consider `Cc1cc(Cl)cc(-c2cnc3ccc(-c4cccc(O)c4)cc3c2C(=O)N(C)C[C@@H]2CCCN2)c1` [Compound 1-1, 3-(3-chloro-5-methylphenyl)-6-(3-hydroxyphenyl)-N-methyl-N-[(2S) -pyrrolidin-2-ylmethyl]quinoline-4-carboxamide], for which the EC50 was determined as 0.12 nM. Compared with the last compound, the EC50 is about 320-fold lower.
As for `CC[C@H](N)CN(C)C(=O)c1c(-c2cc(C)cc(Cl)c2)cnc2ccc(-c3cc(O)cc(C(N)=O)c3)cc12` [Compound 1-8, N-[(25)-2-aminobutyl]-6-(3-carbamoyl-5-hydroxyphenyl)-3-(3-chloro-5-methylphenyl)-N-methylquinoline-4-carboxamide], the figure is 100 to 1000 nM; as for `CN(C)C(=O)c1cccc(-c2cnc3ccc(-c4cccc(O)c4)cc3c2C(=O)N(C)C[C@@H]2CCCN2)c1` [Compound 1-73, 3-[3-(dimethylcarbamoyl)phenyl]-6-(3-hydroxyphenyl)-N-methyl-N-[(2S)-pyrrolidin-2-ylmethyl]quinoline-4-carboxamide], 100 to 1000 nM; as for `Cc1cc(Cl)cc(-c2cnc3ccc(-c4cccc(O)c4)nc3c2C(=O)N(C)C[C@@H]2CCCN2)c1` [Compound 2-1, 3-(3-chloro-5-methylphenyl)-6-(3-hydroxyphenyl)-N-methyl-N-[(2S) -pyrrolidin-2-ylmethyl]-1,5-naphthyridine-4-carboxamide], under 100 nM.
As for `CN(C[C@@H]1CCCN1)C(=O)c1c(-c2cccc(O)c2)cnc2ccc(-c3cccc(O)c3)nc12` [Compound 2-2, 3,6-bis(3-hydroxyphenyl)-N-methyl-N-[(2S)-pyrrolidin-2-ylmethyl]-1,5-naphthyridine-4-carboxamide], the figure is 100 to 1000 nM; as for `Cc1cc(Cl)cc(-c2cnc3ccc(-c4cc(O)ccc4F)nc3c2C(=O)N(C)C[C@@H]2CCCN2)c1` [Compound 2-3, 3-(3-chloro-5-methylphenyl)-6-(2-fluoro-5-hydroxyphenyl)-N-methyl-N-[(2S)-pyrrolidin-2-ylmethyl]-1,5-naphthyridine-4-carboxamide], under 100 nM.
As for `Cc1cc(Cl)cc(-c2cnc3ccc(-c4cc(O)cc(C#N)c4)nc3c2C(=O)N(C)C[C@@H]2CCCN2)c1` [Compound 2-4, 3-(3-chloro-5-methylphenyl)-6-(3-cyano-5-hydroxyphenyl)-N-methyl-N-[(2S)-pyrrolidin-2-ylmethyl]-1,5-naphthyridine-4-carboxamide], the figure is 100 to 1000 nM; as for `CC[C@H](N)CN(C)C(=O)c1c(-c2cc(C)cc(C)c2)cnc2ccc(-c3cc(O)cc(C#N)c3)nc12` [Compound 2-5, N-[(2S)-2-aminobutyl]-6-(3-cyano-5-hydroxyphenyl)-3-(3,5-dimethylphenyl)-N-methyl-1,5-naphthyridine-4-carboxamide], under 100 nM; as for `CC[C@H](N)CN(C)C(=O)c1c(-c2cc(C)cc(Cl)c2)cnc2ccc(-c3cc(O)cc(C#N)c3)nc12` [Compound 2-6, N-[(2S)-2-aminobutyl]-3-(3-chloro-5-methylphenyl)-6-(3-cyano-5-hydroxyphenyl)-N -methyl-1,5-naphthyridine-4-carboxamide], under 100 nM.
On to `CC[C@H](N)CN(C)C(=O)c1c(-c2cc(C)cc(F)c2)cnc2ccc(-c3cc(O)cc(C#N)c3)nc12` [Compound 2-7, N-[(2S)-2-aminobutyl]-6-(3-cyano-5-hydroxyphenyl)-3-(3-fluoro-5-methylphenyl)-N -methyl-1,5-naphthyridine-4-carboxamide], for which the EC50 was under 100 nM.
Take `CN(C[C@@H]1CCCN1)C(=O)c1c(-c2cccc(-n3cccn3)c2)cnc2ccc(-c3cccc(O)c3)nc12` [Compound 2-8, 6-(3-hydroxyphenyl)-N-methyl-3-[3-(1H-pyrazol-1-yl)phenyl]-N-[(2S)-pyrrolidin-2-ylmethyl]-1,5-naphthyridine-4-carboxamide]: the EC50 is 100 to 1000 nM.
Regarding `CN(C[C@@H]1CCCN1)C(=O)c1c(-c2cccc(C#N)c2)cnc2ccc(-c3cc(F)cc(C#N)c3)nc12` [Compound 2-15, 6-(3-cyano-5-fluorophenyl)-3-(3-cyanophenyl)-N-methyl-N-[(2S)-pyrrolidin-2-ylmethyl]-1,5-naphthyridine-4-carboxamide], the EC50 fell in the range of 100 to 1000 nM.
In turn, `CN(CC1CCCN1)C(=O)c1c(-c2cccc(CC(=O)O)c2)cnc2ccc(-c3cccc(O)c3)nc12` (centres unmarked) [Compound 2-20, 2-{3-[6-(3-hydroxyphenyl)-4-[methyl(pyrrolidin-2-ylmethyl)carbamoyl]-1,5-naphthyridin-3-yl]phenyl}acetic acid] came in with a concentration for a half-maximal effect (EC50) of 100 to 1000 nM.
In the case of `COC(=O)Cc1cccc(-c2cnc3ccc(-c4cccc(O)c4)nc3c2C(=O)N(C)C[C@@H]2CCCN2)c1` [Compound 2-21, methyl 2-{3-[6-(3-hydroxyphenyl)-4-{methyl[(2S)-pyrrolidin-2-ylmethyl]carbamoyl}-1,5-naphthyridin-3-yl]phenyl}acetate], the EC50 was in the range of 100 to 1000 nM.
For `CN(C[C@@H]1CCCN1)C(=O)c1c(-c2cccc(CCC(=O)O)c2)cnc2ccc(-c3cccc(O)c3)nc12` [Compound 2-22, 3-{3-[6-(3-hydroxyphenyl)-4-{methyl[(2S)-pyrrolidin-2-ylmethyl]carbamoyl}-1,5-naphthyridin-3-yl]phenyl}propanoic acid], the EC50 fell in the range of 100 to 1000 nM.
The compound `CN(C[C@@H]1CCCN1)C(=O)c1ccnc2ccc(-c3cccc(O)c3)nc12` [Compound 3-1, 6-(3-hydroxyphenyl)-N-methyl-N-[(2S)-pyrrolidin-2-ylmethyl]-1,5-naphthyridine-4-carboxamide] came in with an EC50 of under 100 nM.
In the case of `Cc1cc(F)cc(-c2cnc3ccc(N4CCCC4)nc3c2C(=O)N(C)C[C@@H]2CCCN2)c1` [Compound 3-2, 3-(3-fluoro-5-methylphenyl)-N-methyl-6-(pyrrolidin-1-yl)-N-[(2S)-pyrrolidin-2-ylmethyl]-1,5-naphthyridine-4-carboxamide] it was 100 to 1000 nM.
Compound `Cc1cc(F)cc(-c2cnc3ccc(N4CCCC(O)C4)nc3c2C(=O)N(C)C[C@@H]2CCCN2)c1` (some centres unmarked) [Compound 3-3] gave an EC50 of 100 to 1000 nM.
For the compound `CN(C[C@@H]1CCCN1)C(=O)c1c(N2CCCC2)cnc2ccc(-c3cccc(O)c3)nc12` [Compound 3-4, 6-(3-hydroxyphenyl)-N-methyl-3-(pyrrolidin-1-yl)-N-[(2S)-pyrrolidin-2-ylmethyl]-1,5-naphthyridine-4-carboxamide], the EC50 was under 100 nM.
As for `Cc1cccc(-c2cnc3ccc(-c4cccc(O)c4)nc3c2C(=O)N(C)C[C@@H]2CCCN2)n1` [Compound 3-5, 6-(3-hydroxyphenyl)-N-methyl-3-(6-methylpyridin-2-yl)-N-[(2S)-pyrrolidin-2-ylmethyl]-1,5-naphthyridine-4-carboxamide], the figure is 100 to 1000 nM; as for `CC1CN(c2cnc3ccc(-c4cccc(O)c4)nc3c2C(=O)N(C)C[C@@H]2CCCN2)CC(C)O1` (stereo partly drawn) [Compound 3-6, 3-(2,6-dimethylmorpholin-4-yl)-6-(3-hydroxyphenyl)-N-methyl-N-[(2S)-pyrrolidin-2-ylmethyl]-1,5-naphthyridine-4-carboxamide], under 100 nM.
Compound `CC#Cc1cnc2ccc(-c3cc(F)cc(C#N)c3)nc2c1C(=O)N(C)C[C@@H]1CCCN1` [Compound 3-7, 6-(3-cyano-5-fluorophenyl)-N-methyl-3-(prop-1-yn-1-yl)-N-[(2S)-pyrrolidin-2-ylmethyl]-1,5-naphthyridine-4-carboxamide] had an EC50 of 100 to 1000 nM.

These data come from patent US11028068B2, “Somatostatin modulators and uses thereof” (Crinetics Pharmaceuticals, Inc., priority 2017, dated 2021).
